Results taken from US12441709B2, “Therapeutic compounds” (INDIVIOR UK LIMITED, priority 2016, dated 2025).
Where two headings read alike, the source gives them in different places. No end group written: not given here.

Key:
human OX1 receptor [1] = molecular target: T1, human OX1 receptor (Homo sapiens, UniProt O43613); assay: Orexin 1 receptor radioligand binding assay ([3H]-SB674042 competition); conditions: CHO membranes, 1 nM [3H]-SB674042, 90 min room temperature; read-out: hOX1 pKi (converted)
T1 construct: expressed in transfected cells; host or cells: CHO cells
T1 sequence (O43613 1-425): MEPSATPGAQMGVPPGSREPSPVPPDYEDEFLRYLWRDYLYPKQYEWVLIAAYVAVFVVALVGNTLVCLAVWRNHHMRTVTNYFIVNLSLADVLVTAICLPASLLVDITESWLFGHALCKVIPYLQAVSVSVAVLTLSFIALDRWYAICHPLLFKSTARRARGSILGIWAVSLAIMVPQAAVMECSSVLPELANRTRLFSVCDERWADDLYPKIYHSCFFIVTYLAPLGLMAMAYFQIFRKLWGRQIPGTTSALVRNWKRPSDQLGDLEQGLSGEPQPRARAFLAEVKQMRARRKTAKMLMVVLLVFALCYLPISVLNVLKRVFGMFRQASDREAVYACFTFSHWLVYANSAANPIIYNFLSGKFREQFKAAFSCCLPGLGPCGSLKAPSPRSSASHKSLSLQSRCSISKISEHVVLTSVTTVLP
Description: Orexin 1 Receptor Radioligand Binding Assay:
Cell membranes were prepared from the human OX1 receptor expressing CHO cell line. The harvested cell pellets were homogenized in ice-cold buffer (15 mM TrisHCl (pH 7.5), 2 mM MgCl2, 0.3 mM EDTA, 1 mM EGTA, Sigma protease inhibitor cocktail) and centrifuged at 41,000 g for 20 min at 4° C. After discarding the supernatants the pellets were re-suspended in the before mentioned buffer followed by homogenization and another centrifugation. Obtained pellets were re-suspended in ice cold buffer containing 75 mM TrisHCl (pH 7.5), 12.5 mM MgCl2, 0.3 mM EDTA, 1 mM EGTA, 250 mM sucrose and a protease inhibitor cocktail (Sigma). After protein quantification with the Pierce Protein Assay Kit, using BSA as standard, the membrane homogenates were aliquoted and frozen down at […] until further use.
(§1) Expression levels of the Ox1 receptor (Bmax) were determined by saturation binding and the Kd of the radioligand [^3H]SB674042 was determined by association and dissociation kinetics. Data were elaborated with Graph Pad Prism using radioligand binding analysis. Steady state binding was reached after 90 min of incubation at room temperature. […]

human OX1 receptor [2] = molecular target: T1, human OX1 receptor; assay: Ox1 antagonist FLIPR assay (calcium, orexin A at EC75); format: cell-based; conditions: CHO cells expressing human OX1; at least four replicates; read-out: hOX1 pIC50 (converted)
Source text: (§2) Antagonism against orexin receptors has been measured for each example compound using at least one of the following procedures. Antagonism is reported as a pIC50, where pIC50=−log10(IC50) and where IC50 is the concentration of example compound needed to inhibit 50% of the agonist response. These values may fluctuate depending on the daily cellular assay performance. Fluctuations of this kind are known to those skilled in the art. All reported values are the result of at least four replicate experiments. Ox2 values are only reported from dose response curves for which the top concentration is at least 10 μM.
(§3) Ox1 and Ox2 Antagonist FLIPR Assay: […]
(§4) The next day media is removed and replaced with 30 μL/well of cell loading buffer (a vial of Calcium 5 is solubilized in 20 mL of assay buffer) and the cells incubated for 1 hr at 37° C. The serially diluted test compounds (10 μL/well) are added to the cell plate by the FLIPR Tetra and the addition is monitored for 5 min by the instrument. […] Finally 10 μL of orexin Ain assay buffer+0.1% (w/v) bovine serum albumin is dispensed by the FLIPR Tetra at an EC75 concentration determined for each receptor on the day of the assay. Fluorescence is measured at excitation and emission wavelengths of 485 nm and 525 nm, respectively and data analyzed using Graph Pad Prism for the EC75 value of orexin A and Aplus to determine a pIC50 value for each test compound. […]

human OX2 receptor [3] = molecular target: T2, human OX2 receptor (Homo sapiens, UniProt O43614); assay: Orexin 2 receptor radioligand binding assay ([3H]-EMPA competition); conditions: CHO membranes, 2 nM [3H]-EMPA, 60 min room temperature; read-out: hOX2 pKi (converted)
T2 construct: expressed in transfected cells; host or cells: CHO cell line (membranes)
T2 sequence (O43614 1-444): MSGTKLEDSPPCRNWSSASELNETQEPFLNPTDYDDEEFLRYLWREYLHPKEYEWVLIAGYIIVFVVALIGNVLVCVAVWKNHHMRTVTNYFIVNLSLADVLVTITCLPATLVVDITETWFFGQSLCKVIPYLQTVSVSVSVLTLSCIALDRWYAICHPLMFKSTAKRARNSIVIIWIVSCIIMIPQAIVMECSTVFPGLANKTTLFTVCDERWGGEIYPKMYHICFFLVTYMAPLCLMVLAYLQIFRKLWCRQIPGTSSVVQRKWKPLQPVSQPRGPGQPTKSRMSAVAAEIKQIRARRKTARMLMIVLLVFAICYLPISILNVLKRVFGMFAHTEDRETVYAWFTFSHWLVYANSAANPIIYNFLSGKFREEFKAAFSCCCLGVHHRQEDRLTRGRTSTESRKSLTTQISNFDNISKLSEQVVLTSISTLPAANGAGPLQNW
Description: Orexin 2 Receptor Radioligand Binding Assay:
Cell membranes were prepared from the human Ox2 receptor expressing CHO cell line. The harvested cell pellets were homogenized in ice-cold buffer (15 mM TrisHCl (pH 7.4), 2 mM MgCl2, 0.3 mM EDTA, 1 mM EGTA, Sigma FAST™ protease inhibitor cocktail) and centrifuged at 45,000 rpm for 30 min at 4° C. After discarding the supernatants the pellets were re-suspended in the before mentioned buffer followed by homogenization and another centrifugation. Obtained pellets were re-suspended in ice cold buffer containing 75 mM TrisHCl (pH 7.5), 12.5 mM MgCl2, 0.3 mM EDTA, 1 mM EGTA, 250 mM sucrose and a Sigma FAST TM protease inhibitor cocktail. After protein quantification with the Pierce Protein Assay Kit, using BSA as standard, the membrane homogenates were aliquoted and frozen down at […] until further use.
as §1, with “Ox2” for “Ox1”, “[^3H]EMPA” for “[^3H]SB674042”, “60” for “90”

human Orexin 2 receptor = molecular target: T3, human Orexin 2 receptor (Homo sapiens, UniProt O43614); assay: Kinetics of competitive binding (Motulsky and Mahan analysis), Orexin 2 receptor; conditions: mean of 3 studies (n=3); for Ki: 1 nM [3H] EMPA, read-out: pKi (M&M) (converted)
T3 construct: expressed in transfected cells
T3 sequence (O43614 1-444): T2 sequence (O43614 1-444)
Description: (§5) Kinetics of Competitive Binding (Motulski and Mahan's Analysis):
(§6) Motulsky and Mahan characterisation of the Examples was performed as described by Faedo et al., European Journal of Pharmacology 692(2012), p. 1-9 with the following modifications:
(§7) The association binding experiment was initiated by addition of membranes expressing the human Orexin 1 receptor at different times to the incubation buffer containing 1 nM of [^3H] SB674042. Non-specific binding was determined in the presence of 10 μM of SB674042. The association of the radioligand to the orexin receptor was performed as described for the kinetics experiment in the presence of the competing test compounds. The competing test compounds were assayed at three concentrations corresponding to 3, 10 and 30 fold of the determined Ki. For kinetic binding studies of the human Orexin 2 receptor, the method described for the Orexin 1 receptor was used with modifications that membranes expressing the human Orexin 2 receptor were incubated in buffer containing 1 nM of [3H] EMPA and non-specific binding was determined in the presence of 10 μM ACT-078573.
The results for the Orexin-2 Receptor studies are the mean of the results from 3 studies (n=3) for both Example compounds.

human OX2 receptor [4] = molecular target: T2, human OX2 receptor; assay: Ox2 antagonist FLIPR assay (calcium, orexin A at EC75); format: cell-based; conditions: CHO cells expressing human OX2; top concentration at least 10 μM; at least four replicates; read-out: hOX2 pIC50 (converted)
Source text: as §2, §3, §4

human Orexin 1 receptor = molecular target: T4, human Orexin 1 receptor (Homo sapiens, UniProt O43613); assay: Kinetics of competitive binding (Motulsky and Mahan analysis), Orexin 1 receptor; conditions: for Ki: read-out: pKi (M&M) (converted)
T4 construct: expressed in transfected cells
T4 sequence (O43613 1-425): T1 sequence (O43613 1-425)
Description: as §5, §6, §7

orexin-1 (OX1) = molecular target: T5, orexin-1 (OX1) (Homo sapiens, UniProt O43613); conditions: affinity of OxA relative to OxB at OX1; literature reference (2); cited from earlier work
T5 sequence (O43613 1-425): T1 sequence (O43613 1-425)

[5] = further test results (Example 1 n = 3, Example 2 n = 1)
[6] = mean of all results (Example 1 n = 5, Example 2 n = 3)
[7] = mean of initial results (n = 2)

| Compound | Ki (human OX1 receptor [1]) [nM] | IC50 (human OX1 receptor [2]) [nM] | Ki (human OX2 receptor [3]) [nM] | Ki (human Orexin 2 receptor) [nM] | dissociation half-life (human Orexin 2 receptor) [min] | koff (human Orexin 2 receptor) [s⁻¹] | kon (human Orexin 2 receptor) [M⁻¹ s⁻¹] | tR (human Orexin 2 receptor) [min] | IC50 (human OX2 receptor [4]) [nM] | dissociation half-life (human Orexin 1 receptor; [5]) [h] | koff (human Orexin 1 receptor; [5]) [s⁻¹] | kon (human Orexin 1 receptor; [5]) [M⁻¹ s⁻¹] | tR (human Orexin 1 receptor; [5]) [min] | Ki (human Orexin 1 receptor; [5]) [nM] | dissociation half-life (human Orexin 1 receptor; [6]) [h] | koff (human Orexin 1 receptor; [6]) [s⁻¹] | kon (human Orexin 1 receptor; [6]) [M⁻¹ s⁻¹] | tR (human Orexin 1 receptor; [6]) [min] | Ki (human Orexin 1 receptor; [6]) [nM] | dissociation half-life (human Orexin 1 receptor; [7]) [h] | also measured |
| --- | --- | --- | --- | --- | --- | --- | --- | --- | --- | --- | --- | --- | --- | --- | --- | --- | --- | --- | --- | --- | --- |
| Cc1ccc(-n2nccn2)c(C(=O)N(C)[C@@H](C)CNc2cnc(C(F)(F)F)cn2)n1 [Example 1, N,6-dimethyl-3-(2H-1,2,3-triazol-2-yl)-N-[(2S)-1-{[5-(trifluoromethyl)pyrazin-2-yl]amino}propan-2-yl]pyridine-2-carboxamide] | 1 | 0.794 | 251 | 316 | 4.1 | 0.00352 | 10800 | 5.9 | 1000 | 1.73 | 0.000117 | 146000 | 150 | 0.794 | 2.83 | 8.33e-05 | 140000 | 245 | 0.501 | 4.13 | koff (human Orexin 1 receptor; [7]): 5e-05 s⁻¹; kon (human Orexin 1 receptor; [7]): 130000 M⁻¹ s⁻¹; tR (human Orexin 1 receptor; [7]): 357 min; Ki (human Orexin 1 receptor; [7]): 0.316 nM |
| OxA: neuropeptide Orexin-A, a 33 amino acid polypeptide, agonist on OX1 and OX2 receptors (QPLPDCCRQKTCSCRLYELLHGAGNHAAGILTL; not fully specified (residue 1, C-terminus, bridges); cysteine pairing not given here; UniProt O43612 34-66, looked up) | – | – | – | – | – | – | – | – | – | – | – | – | – | – | – | – | – | – | – | – | higher affinity than OxB (orexin-1 (OX1)): > 10 fold |
| Cc1ccc(-n2nccn2)c(C(=O)N(C)[C@@H](C)CNc2ncc(C(F)(F)F)cn2)n1 [Example 2, N,6-dimethyl-3-(2H-1,2,3-triazol-2-yl)-N-[(2S)-1-{[5-(trifluoromethyl)pyrimidin-2-yl]amino}propan-2-yl]pyridine-2-carboxamide] | 1.58 | 1.26 | 794 | 1580 | 4.3 | 0.00298 | 1830 | 6.2 | 2000 | 1 | 0.000183 | 78000 | 87 | 2.51 | 1.08 | 0.000183 | 76200 | 93 | 2.51 | 1.12 | koff (human Orexin 1 receptor; [7]): 0.000167 s⁻¹; kon (human Orexin 1 receptor; [7]): 75300 M⁻¹ s⁻¹; tR (human Orexin 1 receptor; [7]): 96 min; Ki (human Orexin 1 receptor; [7]): 2.51 nM |
